From patent US7122563B2, “Derivatives of 4-demethylpenclomedine, use thereof and preparation thereof” (Southern Research Institute, priority 2005, dated 2006)

Legend:
[1] = rats; cited from earlier work
MX-1 Mammary Tumor = assay: MX-1 mammary tumor implanted in the mammary fat pad of mice, i.p. treatment
[2] = test system: U251 human glioblastoma xenograft; assay: Intracranially-implanted U251 human glioblastoma xenograft, survival; assay type: in vivo; conditions: for increase in life span (ILS): intracranially-implanted U251, side-by-side experiment
Excerpt: (§1) Treatment of i.c. implants is initiated 1 day after tumor implantation and continued for 5 days. Mice are monitored daily for survival.

[3] = Behavioral test of neurotoxicity (tremors); assay type: in vivo; conditions: DM-SMTC-PEN evaluated simultaneously with PEN
Excerpt: A major concern for the penclomedine (PEN) series of derivatives is their possible neurotoxicity. PEN was removed from clinical development as a potential drug for treating breast cancer because of its dose-limiting neurotoxicity.

[4] = test system: D54 human glioblastoma multiforme; assay: Intracranially-implanted D54 human glioblastoma multiforme, survival; assay type: in vivo
Excerpt: as §1

[5] = after both intravenous and oral administration, related to peak plasma levels; cited from earlier work
[6] = IP 135 mg/kg/dose, Days 15–19, groups of 5 mice
[7] = IP 135 mg/kg/dose, Days 13-17, groups of 5 mice
[8] = IP 60 mg/kg/dose, Days 15–19, groups of 5 mice

## COc1nc(C(Cl)(Cl)Cl)c(Cl)c(O)c1Cl [4-DM-PEN, 3,5-Dichloro-2-methoxy-4-hydroxy-6-(trichloromethyl)pyridine, reference compound]
[1]
  cerebellar damage: cerebellar damage only in the PEN-treated group
MX-1 Mammary Tumor; IP 135 mg/kg/dose, Days 15–19
  Growth Delay (T-C): 32.8
  Tumor-free Survivors: 0/5
MX-1 Mammary Tumor; [6]
  Regressions Complete: 0
  Regressions Partial: 2

## CCN(CC)C(=S)Oc1c(Cl)c(OC)nc(C(Cl)(Cl)Cl)c1Cl [DM-DETC-PEN]
MX-1 Mammary Tumor; IP 135 mg/kg/dose, Days 15–19
  Growth Delay (T-C): >35.2
  Tumor-free Survivors: 1/5
MX-1 Mammary Tumor; [6]
  Regressions Complete: 1
  Regressions Partial: 1

## COc1nc(C(Cl)(Cl)Cl)c(Cl)c(OC(=S)N(C)C)c1Cl [DM-DMTC-PEN]
[2]
  increase in life span (ILS): 44%
MX-1 Mammary Tumor; IP 135 mg/kg/dose, Days 13-17
  Growth Delay (T-C): >37.0
  Tumor-free Survivors: 3/5
MX-1 Mammary Tumor; [7]
  Regressions Complete: 4
  Regressions Partial: 1

## CCSC(=O)Oc1c(Cl)c(OC)nc(C(Cl)(Cl)Cl)c1Cl [DM-SETC-PEN]
MX-1 Mammary Tumor; IP 60 mg/kg/dose, Days 15–19
  Growth Delay (T-C): >35.2
  Tumor-free Survivors: 1/5
MX-1 Mammary Tumor; [8]
  Regressions Complete: 2
  Regressions Partial: 3

## COc1nc(C(Cl)(Cl)Cl)c(Cl)c(OC(=O)SC)c1Cl [DM-SMTC-PEN]
[3]
  neurotoxicity (production of tremors): non-neurotoxic
[4]
  increase in life span: 18%
[2]; compared with the acyl derivatives
  activity against intracranially-implanted U251: comparably active to the acyl derivatives
[2]
  increase in life span (ILS): 56%
MX-1 Mammary Tumor; IP 60 mg/kg/dose, Days 15–19
  Growth Delay (T-C): >41.6
  Tumor-free Survivors: 2/5
MX-1 Mammary Tumor; [8]
  Regressions Complete: 2
  Regressions Partial: 2

## COc1nc(C(Cl)(Cl)Cl)c(Cl)c(OC(=O)Sc2ccccc2)c1Cl [DM-SPTC-PEN]
MX-1 Mammary Tumor; IP 135 mg/kg/dose, Days 15–19
  Growth Delay (T-C): >35.2
  Tumor-free Survivors: 1/5
MX-1 Mammary Tumor; [6]
  Regressions Complete: 2
  Regressions Partial: 2

## COc1nc(C(Cl)(Cl)Cl)c(Cl)c(OC)c1Cl [PEN, 3,5-dichloro-2,4-dimethoxy-6-(trichloromethyl) pyridine]
[3]
  neurotoxicity (production of tremors): production of tremors
[1]
  cerebellar damage: cerebellar damage only in the PEN-treated group
[5]
  neurotoxicity in clinical trials: dose-limiting neurotoxicity was observed
